Data on 1 compound can be found in US10961222B2, “Chemical compound of isocitrate dehydrogenase inhibitor, and application thereof” (NANJING SANHOME PHARMACEUTICAL CO., LTD., priority 2016, dated 2021).

Assay [1] deals with U87-MG (IDH2-R140Q) subcutaneous xenograft tumor. In words: Subcutaneous xenograft tumor caused by U87-MG (IDH2-R140Q) mutant cells in vivo: intratumor 2-HG. Also on record: species or system BALB/c nude mice. To be noted: U87-MG (IDH2-R140Q) subcutaneous xenograft model. The source says: 1.2 Animals: BALB/c nude mice, 6-7 weeks old, female, 18-22 g, purchased from Nanjing Jinlaichang Company.
U87-MG (IDH2-R140Q) cells and U87-MG cells (wild type) were expanded, and cells in logarithmic growth phase were used for tumor inoculation in vivo. 16 mice were inoculated subcutaneously into the right lower back of the body at an amount of 2×10^6 cells/mouse (the volume ratio of cell suspension to Matrigel was 1:0.8).
The non-mutation control group was nude mice inoculated with U87-MG cells, and the test compound groups and vehicle control group were nude mice inoculated with U87-MG (IDH2-R140Q) cells.
Each group was intragastrically administered with a corresponding concentration of the compound solution, the administration volume was 100 μL/10 g body weight, and the control group was administered the same volume of blank vehicle.
After 10 days of administration, the mice were sacrificed. The tumors were exfoliated, homogenized, and the 2-HG content in the tumor was examined.
The 2-HG concentration in the homogenate of each animal tumor in each group was determined by LC-MS/MS. The percentage (2-HG %) was calculated; the calculation formula is as follows 2-HG %=(2-HG concentration of administration group tumor−2-HG concentration of U87-MG control group tumor)/(2-HG concentration of U87−MG(IDH2-R140Q) control group tumor−2-HG concentration of U87-MG control group tumor)×100%.

Assay [2] has as its system human acute myeloid leukemia AM7577 cells. In words: Human acute myeloid leukemia NOD/SCID animal model: survival. The format is in vivo, NOD/SCID mice. To be noted: gavage once a day for 14 days, 14 days after administration. The source says:
1.1 Compounds to be tested: the compounds of the present disclosure prepared in the above examples, each of which was formulated into a solution in corresponding concentrations by using a vehicle (2% absolute ethanol:10% Solutol™: 88% physiological saline (v/v/v)).
1.2 Cells: human acute myeloid leukemia AM7577 cells, provided by Sino-American Crown Biotechnology (Beijing) Co., Ltd
1.4 Animals: NOD/SCID mice, 3-4 weeks old, female, purchased from Beijing Huakangkang Biotechnology Co., Ltd
Each mouse was inoculated through the tail vein at an amount of 2×10^6 cells resuspended in 100 uL of PBS.
Orbital blood samples of animals were collected weekly, labeled with human CD45, and the percentage of positive cells was detected. The animals were grouped when the percentage of peripheral blood CD45+ cells reached 5%. The proportion of peripheral blood CD45+ cells reached 5% on the 40th day after inoculation. After grouping, drugs were administered by gastric gavageonce once a day for 14 days.
The mortality rate of the animals after administration and the survival period of the surviving animals were observed.

In the case of `O[C@@]1(C(F)(F)F)CCN(c2nc(Nc3ccnc(C(F)(F)F)c3)nc(-c3cccc(C(F)(F)F)n3)n2)C1` [Example 22B, (S)-4-(3-trifluoromethyl-3-hydroxypyrrolidin-1-yl)-6-(6-(trifluoromethyl)pyridin-2-yl)-N-(2-(trifluoromethyl)pyridin-4-yl)-1,3,5-triazin-2-amine], the “ability of lowering 2-HG level compared with positive compound AG-221” value in assay [1] is recorded as “substantially superior”. For the same compound, the “Numbers of surviving animals” value in assay [2] (15 mg/kg, 8 animals per group) came out at 7; in assay [2] (45 mg/kg, AG-221 group 4 animals, Example 22B group 8), 7.
